Assay results as given in PubChem BioAssay AID2060603 (Molecular Pharmacology Branch, DTP, NCI, 2025).
Values joined by “and” are separate entries in the source; they are usually repeats but may differ in a detail not shown here. Identical values can stand only once.

System: 422866-222-R5-J1-PDC spheroid viability
Assay: Anticancer human tumor 422866-222-R5-J1-PDC patient-derived pancreatic adenocarcinoma cell line growth inhibition [CLK]
Settings: spheroids with HUVEC and MSC; for viability, T/C: stronger effect = lower value
In short: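 Patient-derived tumor cells grown as complex spheroids with HUVEC endothelial cells and mesenchymal stem cells, treated with drug combinations. Concentrations descend in half-log steps from near clinical Cmax, or from 10 microM if Cmax unknown.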

[1] = curve of first compound, second compound 0.0316 µM
[2] = curve of first compound, second compound 0.1 µM
[3] = curve of first compound, second compound 0.316 µM
[4] = curve of first compound, second compound 1 µM
[5] = curve of first compound, second compound 3.16 µM
[6] = curve of first compound, second compound 10 µM
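Further: spheroids exposed to agents for seven days before readout.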

CC1(C)CCC(CN2CCN(c3ccc(C(=O)NS(=O)(=O)c4ccc(NCC5CCOCC5)c([N+](=O)[O-])c4)c(Oc4cnc5[nH]ccc5c4)c3)CC2)=C(c2ccc(Cl)cc2)C1 + CN1CCN(c2cc(C(=O)Nc3cc4cc(-c5cnn(C)c5)ccc4cn3)ccn2)CC1
IC50 [1]: > 10000 nM | IC50 [2]: > 10000 nM | IC50 [3]: 7960 nM | IC50 [4]: < 31.6 nM | IC50 [5]: < 31.6 nM | IC50 [6]: < 31.6 nM | viability, T/C (second compound 0.0316 µM, first compound 0.0316 µM): 105% | viability, T/C (second compound 0.0316 µM, first compound 0.1 µM): 104% | viability, T/C (second compound 0.0316 µM, first compound 0.316 µM): 101% | viability, T/C (second compound 0.0316 µM, first compound 1 µM): 115% | viability, T/C (second compound 0.0316 µM, first compound 3.16 µM): 113% | viability, T/C (second compound 0.0316 µM, first compound 10 µM): 69.3% | viability, T/C (second compound 0.1 µM, first compound 0.0316 µM): 111% | viability, T/C (second compound 0.1 µM, first compound 0.1 µM): 117% | viability, T/C (second compound 0.1 µM, first compound 0.316 µM): 105% | viability, T/C (second compound 0.1 µM, first compound 1 µM): 109% | viability, T/C (second compound 0.1 µM, first compound 3.16 µM): 95.8% | viability, T/C (second compound 0.1 µM, first compound 10 µM): 58.3% | viability, T/C (second compound 0.316 µM, first compound 0.0316 µM): 89.2% | viability, T/C (second compound 0.316 µM, first compound 0.1 µM): 107% | viability, T/C (second compound 0.316 µM, first compound 0.316 µM): 96.5% | viability, T/C (second compound 0.316 µM, first compound 1 µM): 91.2% | viability, T/C (second compound 0.316 µM, first compound 3.16 µM): 91.9% | viability, T/C (second compound 0.316 µM, first compound 10 µM): 39.6% | viability, T/C (second compound 1 µM, first compound 0.0316 µM): 26.1% | viability, T/C (second compound 1 µM, first compound 0.1 µM): 26.1% | viability, T/C (second compound 1 µM, first compound 0.316 µM): 22.1% | viability, T/C (second compound 1 µM, first compound 1 µM): 27.5% | viability, T/C (second compound 1 µM, first compound 3.16 µM): 25.1% | viability, T/C (second compound 1 µM, first compound 10 µM): 12.1% | viability, T/C (second compound 3.16 µM, first compound 0.0316 µM): 11.2% | viability, T/C (second compound 3.16 µM, first compound 0.1 µM): 10.1% | viability, T/C (second compound 3.16 µM, first compound 0.316 µM): 8.93% | viability, T/C (second compound 3.16 µM, first compound 1 µM): 9.29% | viability, T/C (second compound 3.16 µM, first compound 3.16 µM): 8.57% | viability, T/C (second compound 3.16 µM, first compound 10 µM): 0.67% | viability, T/C (second compound 10 µM, first compound 0.0316 µM): 3.46% | viability, T/C (second compound 10 µM, first compound 0.1 µM): 3.09% | viability, T/C (second compound 10 µM, first compound 0.316 µM): 2.86% | viability, T/C (second compound 10 µM, first compound 1 µM): 1.74% | viability, T/C (second compound 10 µM, first compound 3.16 µM): 2.12% | viability, T/C (second compound 10 µM, first compound 10 µM): 1.57%

COc1cccc2c1C(=O)c1c(O)c3c(c(O)c1C2=O)CC(O)(C(=O)CO)CC3OC1CC(N)C(O)C(C)O1 (stereo not drawn)
viability, T/C (compound 0.0316 µM): 57.2% and 67.1% | viability, T/C (compound 0.1 µM): 65.7% and 52.3% | viability, T/C (compound 0.316 µM): 44.2% and 30.3% | viability, T/C (compound 1 µM): 32.1% and 27% | viability, T/C (compound 3.16 µM): 28.3% and 26.7% | viability, T/C (compound 10 µM): 30.9% and 26% | IC50 (curve of compound): 215 nM and 113 nM

NC(=O)C(=Cn1cnc(-c2cc(C(F)(F)F)cc(C(F)(F)F)c2)n1)c1cncnc1
viability, T/C (compound 0.00949 µM): 95.7% and 97.4% | viability, T/C (compound 0.03 µM): 103% and 84% | viability, T/C (compound 0.0949 µM): 86.1% and 81.5% | viability, T/C (compound 0.3 µM): 72.6% and 58.2% | viability, T/C (compound 0.949 µM): 89.1% and 92.3% | viability, T/C (compound 3 µM): 76.9% and 76.2% | IC50 (curve of compound): > 3000 nM

NC(=O)C(=Cn1cnc(-c2cc(C(F)(F)F)cc(C(F)(F)F)c2)n1)c1cncnc1 + CNC(=O)c1ccc(Nc2nc(OC3CCCC3)c3c(-c4ccc5nc(C)oc5c4)c[nH]c3n2)c(OC)c1
IC50 [1]: > 3000 nM | IC50 [2]: > 3000 nM | IC50 [3]: 279 nM | IC50 [4]: 55.4 nM | IC50 [5]: 37 nM | IC50 [6]: 55.2 nM | viability, T/C (second compound 0.0316 µM, first compound 0.00949 µM): 98.7% | viability, T/C (second compound 0.0316 µM, first compound 0.03 µM): 107% | viability, T/C (second compound 0.0316 µM, first compound 0.0949 µM): 95.1% | viability, T/C (second compound 0.0316 µM, first compound 0.3 µM): 47.6% | viability, T/C (second compound 0.0316 µM, first compound 0.949 µM): 75.6% | viability, T/C (second compound 0.0316 µM, first compound 3 µM): 76.5% | viability, T/C (second compound 0.1 µM, first compound 0.00949 µM): 98.5% | viability, T/C (second compound 0.1 µM, first compound 0.03 µM): 115% | viability, T/C (second compound 0.1 µM, first compound 0.0949 µM): 66.6% | viability, T/C (second compound 0.1 µM, first compound 0.3 µM): 46.2% | viability, T/C (second compound 0.1 µM, first compound 0.949 µM): 47.5% | viability, T/C (second compound 0.1 µM, first compound 3 µM): 67.5% | viability, T/C (second compound 0.316 µM, first compound 0.00949 µM): 86.1% | viability, T/C (second compound 0.316 µM, first compound 0.03 µM): 87.6% | viability, T/C (second compound 0.316 µM, first compound 0.0949 µM): 56.8% | viability, T/C (second compound 0.316 µM, first compound 0.3 µM): 31.4% | viability, T/C (second compound 0.316 µM, first compound 0.949 µM): 45.4% | viability, T/C (second compound 0.316 µM, first compound 3 µM): 71.8% | viability, T/C (second compound 1 µM, first compound 0.00949 µM): 52% | viability, T/C (second compound 1 µM, first compound 0.03 µM): 69.5% | viability, T/C (second compound 1 µM, first compound 0.0949 µM): 40.6% | viability, T/C (second compound 1 µM, first compound 0.3 µM): 21.7% | viability, T/C (second compound 1 µM, first compound 0.949 µM): 32.3% | viability, T/C (second compound 1 µM, first compound 3 µM): 54.9% | viability, T/C (second compound 3.16 µM, first compound 0.00949 µM): 45.7% | viability, T/C (second compound 3.16 µM, first compound 0.03 µM): 60.2% | viability, T/C (second compound 3.16 µM, first compound 0.0949 µM): 37.3% | viability, T/C (second compound 3.16 µM, first compound 0.3 µM): 21.3% | viability, T/C (second compound 3.16 µM, first compound 0.949 µM): 29.5% | viability, T/C (second compound 3.16 µM, first compound 3 µM): 48.2% | viability, T/C (second compound 10 µM, first compound 0.00949 µM): 55.1% | viability, T/C (second compound 10 µM, first compound 0.03 µM): 65.4% | viability, T/C (second compound 10 µM, first compound 0.0949 µM): 40.9% | viability, T/C (second compound 10 µM, first compound 0.3 µM): 27.9% | viability, T/C (second compound 10 µM, first compound 0.949 µM): 37.2% | viability, T/C (second compound 10 µM, first compound 3 µM): 49.3%
